Measured values from PubChem BioAssay (NCI).
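Each compound was tested at five concentrations against cells in 96-well plates for 48 hours. TGI denotes the concentration required for complete inhibition of growth.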

What was measured:
Test in all cases: NCI tumour cell line growth inhibition, 48 h
[1] = test system: COLO 205 colon
[2] = test system: HL-60(TB) leukemia
[3] = test system: HS 578T breast
[4] = test system: K-562 leukemia
[5] = test system: KM12 colon
[6] = test system: MCF7 breast
[7] = test system: NCI-H460 lung
[8] = test system: NCI-H522 lung
[9] = test system: SW-620 colon
[10] = test system: T-47D breast
[11] = test system: UACC-257 melanoma

COc1ccc(COCC[C@H](C)OC2OC(CO[Si](C)(C)C(C)(C)C)C(O)C(O)C2O)cc1 (some centres not stated)
TGI [1]: > 100 µM
TGI [2]: > 100 µM
TGI [3]: > 100 µM
TGI [4]: > 100 µM
TGI [5]: > 100 µM
TGI [6]: > 100 µM
TGI [7]: > 100 µM
TGI [8]: > 100 µM
TGI [9]: > 100 µM
TGI [10]: > 100 µM
TGI [11]: > 100 µM

COC1(OC)CCN(Cc2ccccc2)C1=O
TGI [1]: 12.5 µM
TGI [2]: 4.15 µM
TGI [3]: > 100 µM
TGI [4]: > 37.9 µM
TGI [5]: 32.2 µM
TGI [6]: 25.3 µM
TGI [7]: 41.2 µM
TGI [8]: > 100 µM
TGI [9]: 7.28 µM
TGI [10]: 18.8 µM
TGI [11]: 28.6 µM

Cc1ccc(NC(=O)c2cccc(OP(=O)(Nc3ccc(C)cc3)Nc3ccc(C)cc3)c2)cc1
TGI [1]: 5.27 µM
TGI [2]: > 100 µM
TGI [3]: 79.9 µM
TGI [4]: > 100 µM
TGI [5]: > 100 µM
TGI [6]: > 100 µM
TGI [7]: > 100 µM
TGI [8]: 12 µM
TGI [9]: > 100 µM
TGI [10]: > 100 µM
TGI [11]: > 100 µM

Nc1ncnc2c1ccn2CC#CCO
TGI [1]: > 100 µM
TGI [2]: > 100 µM
TGI [3]: > 100 µM
TGI [4]: > 100 µM
TGI [5]: > 100 µM
TGI [6]: > 100 µM
TGI [7]: > 100 µM
TGI [8]: > 100 µM
TGI [9]: > 100 µM
TGI [10]: > 100 µM
TGI [11]: > 100 µM

O=C1CC(n2ccnc2)c2c(Cl)sc(Cl)c21 (configuration not stated)
TGI [1]: 33.8 µM
TGI [2]: > 100 µM
TGI [3]: > 78.8 µM
TGI [4]: > 38.1 µM
TGI [5]: 33.9 µM
TGI [6]: 28 µM
TGI [7]: > 73.9 µM
TGI [8]: 17.1 µM
TGI [9]: > 33.1 µM
TGI [10]: 53.2 µM
TGI [11]: > 51.1 µM

CC1(C)CC(=O)c2c(-c3ccc(Cl)cc3)c(C#N)c(=S)n(C3OC(CO)C(O)C(O)C3O)c2C1 (configuration not stated)
TGI [1]: 92.8 µM
TGI [2]: > 100 µM
TGI [3]: > 100 µM
TGI [4]: 57.3 µM
TGI [5]: > 100 µM
TGI [6]: > 100 µM
TGI [7]: > 100 µM
TGI [8]: > 100 µM
TGI [9]: > 100 µM
TGI [10]: 89.6 µM
TGI [11]: 98.2 µM

NC(=O)C1=C(O)[C@@]2(O)C(=O)C3=C(O)c4c(O)cccc4CC3C[C@H]2CC1=O (some centres not stated)
TGI [1]: 3.17 µM
TGI [2]: 14.9 µM
TGI [3]: 13.7 µM
TGI [4]: > 61.5 µM
TGI [5]: 23.4 µM
TGI [6]: > 49.9 µM
TGI [7]: 11.8 µM
TGI [8]: 7.72 µM
TGI [9]: 33.6 µM
TGI [10]: 23.8 µM
TGI [11]: 28.6 µM

O=c1ccn(C/C=C/c2ccccc2)c(=S)n1C/C=C/c1ccccc1
TGI [1]: > 100 µM
TGI [2]: 39.4 µM
TGI [3]: > 100 µM
TGI [4]: > 100 µM
TGI [5]: > 100 µM
TGI [6]: > 100 µM
TGI [7]: > 100 µM
TGI [8]: > 100 µM
TGI [9]: > 100 µM
TGI [10]: > 100 µM
TGI [11]: > 100 µM

O=C(c1ccccc1)c1ccc(N2C(=O)/C(=C/c3cccc(Oc4ccccc4)c3)N=C2c2ccccc2)c(N2C(=O)/C(=C/c3cccc(Oc4ccccc4)c3)N=C2c2ccccc2)c1
TGI [1]: 37.1 µM
TGI [2]: 35.9 µM
TGI [3]: 88.5 µM
TGI [4]: > 100 µM
TGI [5]: > 100 µM
TGI [6]: 94.3 µM
TGI [7]: 80.4 µM
TGI [8]: 51 µM
TGI [9]: > 100 µM
TGI [10]: > 100 µM
TGI [11]: 71.7 µM

CC1(C)N=C(C(N)=O)c2ncn(Cc3ccccc3)c2N1
TGI [1]: > 100 µM
TGI [2]: > 100 µM
TGI [3]: > 100 µM
TGI [4]: > 100 µM
TGI [5]: > 100 µM
TGI [6]: > 100 µM
TGI [7]: > 100 µM
TGI [8]: > 100 µM
TGI [9]: > 100 µM
TGI [10]: > 100 µM
TGI [11]: > 100 µM

CC/C(Cl)=N\OC(=O)Nc1ccc(F)c(Cl)c1
TGI [1]: 8.16 µM
TGI [2]: 4.33 µM
TGI [3]: > 100 µM
TGI [4]: 3.26 µM
TGI [5]: 35 µM
TGI [6]: 20.1 µM
TGI [7]: 34.3 µM
TGI [8]: 3.44 µM
TGI [9]: 6.92 µM
TGI [10]: 21.3 µM
TGI [11]: 31.9 µM

CCOC(=O)N1c2ccccc2N(C(=O)OCC)C1CC(=O)/C=C/c1ccccc1
TGI [1]: 4.17 µM
TGI [2]: 6.94 µM
TGI [3]: > 19.9 µM
TGI [4]: > 30.7 µM
TGI [5]: 9.51 µM
TGI [6]: 13.6 µM
TGI [7]: 11.1 µM
TGI [8]: 6.42 µM
TGI [9]: 25 µM
TGI [10]: > 100 µM
TGI [11]: 21.9 µM

Cc1cc(-c2nc3cc(F)ccc3s2)ccc1N
TGI [1]: > 67.3 µM
TGI [2]: > 100 µM
TGI [3]: > 82 µM
TGI [4]: > 100 µM
TGI [5]: > 100 µM
TGI [6]: 2.72 µM
TGI [7]: > 54.9 µM
TGI [8]: > 100 µM
TGI [9]: > 100 µM
TGI [10]: > 100 µM
TGI [11]: > 69.9 µM

O=C1CSC(c2ccccc2)N1c1ccc(-c2ccc(-n3c(-c4ccccc4)nc4ccccc4c3=O)cc2)cc1 (configuration not stated)
TGI [1]: > 100 µM
TGI [2]: > 100 µM
TGI [3]: > 100 µM
TGI [4]: > 100 µM
TGI [5]: > 100 µM
TGI [6]: > 100 µM
TGI [7]: > 100 µM
TGI [8]: > 100 µM
TGI [9]: > 100 µM
TGI [10]: > 100 µM
TGI [11]: > 100 µM

COc1ccc2nc3cccc([N+](=O)[O-])c3c(NCCC(=O)O)c2c1
TGI [1]: > 10 µM
TGI [2]: > 10 µM
TGI [3]: > 10 µM
TGI [4]: > 10 µM
TGI [5]: > 10 µM
TGI [6]: > 10 µM
TGI [7]: > 10 µM
TGI [8]: > 10 µM
TGI [9]: > 10 µM
TGI [10]: > 10 µM
TGI [11]: > 10 µM

Cc1nc(C)c(N2CCN(Cc3ccccc3)CC2)c(=O)[nH]1
TGI [1]: > 100 µM
TGI [2]: > 100 µM
TGI [3]: > 100 µM
TGI [4]: > 100 µM
TGI [5]: > 100 µM
TGI [6]: > 100 µM
TGI [7]: > 100 µM
TGI [8]: > 100 µM
TGI [9]: > 100 µM
TGI [10]: > 100 µM
TGI [11]: > 100 µM

CN(C)c1n2c3ccc([N+](=O)[O-])cc3n3c(N(C)C)[n+]4ccccc4c3c2c2cccc[n+]12
TGI [1]: > 100 µM
TGI [2]: > 100 µM
TGI [3]: > 100 µM
TGI [4]: > 100 µM
TGI [5]: > 100 µM
TGI [6]: > 100 µM
TGI [7]: > 100 µM
TGI [8]: > 100 µM
TGI [9]: > 100 µM
TGI [10]: > 100 µM
TGI [11]: > 100 µM
